Values quoted from earlier work as cited in patent US20080107726A1, “COMPOSITIONS COMPRISING BETA-ADRENERGIC RECEPTOR ANTAGONISTS AND DIURETICS” (priority 2006, published 2008).
Counter-ions that a name gives are not always drawn. Like-named read-outs stand apart in the source and are kept apart here.

## COCCc1ccc(OCC(O)CNC(C)C)cc1 (racemic) [Metoprolol succinate, (±)-1-(isopropylamino)-3-[p-(2-methoxyethyl)phenoxy]-2-propanol succinate (2:1) (salt)]
In dichloromethane and 2-propanol
  Solubility: slightly soluble
In ethanol
  Solubility: sparingly soluble
In ethyl acetate, acetone, diethylether and heptane
  Solubility: practically insoluble
In methanol
  Solubility: soluble
In water
  Solubility: freely soluble
